Data on one substance can be found in US9801850B2, “Antibacterial agent” (OSAKA UNIVERSITY, priority 2009, dated 2017).

Assay in all cases: Bactericidal effect, number of remaining viable cells
The test system of experiment [1] is P. aeruginosa PAO1. Format: cell-based, Pseudomonas aeruginosa. The settings on record: EGCG-C16 50, 100, 200 μg/ml, 0 to 6 hours, FIG. 2(C). The procedure: (§1) The bactericidal effect of EGCG-C16 against MRSA ATCC43300, E. coli MG1655, and P. aeruginosa PAO1 was measured. Each strain of bacteria was cultured using an MH-broth as a medium.
(§2) The antibacterial agent solution and the bacterial culture solution were mixed together and the resultant mixture was cultured at 37° C. in the same manner as described in the above section (2), except that the final concentration of the EGCG-C16 in the mixture were set to: 6.25 μg/ml or 25 μg/ml for the MRSA; 200 μg/ml for the E. coli; and 50 μg/ml, 100 μg/ml, and 200 μg/ml for the P. aeruginosa. The number of viable cells in the mixture of the antibacterial agent solution and the bacterial culture solution was set to 1×10^5 CFU/ml. Then, after a lapse of a predetermined time from the start of the culture (0 hours, 2 hours, 4 hours, and 6 hours), the culture solution was collected and diluted with physiological saline so as to prepare 10-fold dilution series of solutions. 100 μl of each of the diluted bacterial culture solutions was placed on a petri dish. The diluted bacterial culture solution was hardened by mixing it with 10 ml of a Trypticase-soy Agar (BBL) that was kept at 50° C., and cultured at 37° C. overnight. Then, the number of the formed colonies (CFU/ml) was counted, and the number of remaining viable cells was measured. […]

In experiment [2] the test system is MRSA ATCC43300. Format: cell-based, Staphylococcus aureus. The settings on record: EGCG-C16 25 μg/ml, 0 to 6 hours, FIG. 2(A). The procedure: as §1, §2
Experiment [3] has as its system E. coli MG1655. It is filed as cell-based, Escherichia coli. The settings on record: EGCG-C16 200 μg/ml, 0 to 6 hours, FIG. 2(B). How it is done:
as §1, §2

Take EGCG-palmitate [EGCG-C16]: the “number of remaining viable cells” value in experiment [1] is “bacteriostatic action”; in experiment [2], “not only inhibited the propagation but also reduced the number of viable cells”; in experiment [3], “bacteriostatic action”.
